# Structures can show the parent of a compound that is named as a salt.
# Legend:
# [1] = biological target: HDAC8 (Homo sapiens (Human), UniProt Q9BY41); experiment: In vitro enzyme inhibition assay - HDAC (HDAC-Glo I/II), HDAC8; type: biochemical; settings: read-out: HDAC IC50 (nM) HDAC 8
# Summary of the method: (§1)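 Eight compound concentrations (5-fold steps from a 1 mM DMSO stock) tested against pan-HDAC, HDAC1 and HDAC8 with HDAC-Glo I/II reagents, luminescence read-out. Percent inhibition normalized to no-inhibitor and no-enzyme wells; IC50 derived by four-parameter logistic fit.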
# [2] = biological target: LSD1 (Homo sapiens (Human), UniProt O60341); experiment: In vitro enzyme inhibition assay - LSD1 (HTRF); type: biochemical
# [3] = tested on: NCI-H69 cells; experiment: In vitro cell inhibition assay - NCI-H69 cell proliferation (CellTiter-Glo); type: cell-based
# Summary of the method: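 Proliferation was assessed after a 7-day compound treatment of cells seeded at 1×10^3 per well. IC50 values came from fitting inhibition rates derived from CellTiter-Glo luminescence.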
# [4] = biological target: pan-HDAC; experiment: In vitro enzyme inhibition assay - HDAC (HDAC-Glo I/II), pan-HDAC; type: biochemical
# Summary of the method: as §1
# [5] = tested on: DU145 cells; experiment: In vitro cell inhibition assay - DU145 cell proliferation (CellTiter-Glo); type: cell-based
# Procedure: 5. In Vitro Cell Inhibition Assay—DU145 Cell Proliferation
# The inhibitory effect of the compounds on cell proliferation was assessed by detecting the number of viable cells using the CellTiter-Glo® reagent. DU145 cells in the logarithmic growth phase were collected and inoculated into transparent bottom 96-well plates at a density 1×10^3 cells per well with 100 μL medium, and incubated at 37° C., 5% CO2 overnight. The compounds were sequentially diluted in a 5-fold concentration gradient with DMSO to obtain 8 different concentrations. These were then diluted with RPMI-640 (containing 10% FBS) cell culture medium to obtain the compound working solution (2×), which was added to the cell supernatant at 100 μL per well. The incubation continued for 6 days at 37° C., 5% CO2. The plate was then removed and equilibrated at room temperature (25° C.) along with the CellTiter-Glo® mixing reagent for 10-30 minutes. After centrifugation, 120 μL of the culture medium was carefully aspirated from each well, and 60 μL of CellTiter-Glo® reagent was added. The cells were thoroughly mixed with the CellTiter-Glo® mixing reagent using a microplate shaker for 2 min. and then incubated at room temperature for 10 min. The 96-well plate was subsequently placed on a multifunctional microplate reader to record the Luminescence values (RLU).
# The inhibition rate was calculated using the following formula: […]
# Note: ‘Negative’ refers to the group without inhibitors; ‘Blank’ refers to the group without cells.
# The IC50 value was determined by fitting the inhibition rate by GraphPad Prism software.
# [6] = tested on: NCI-H1417 cells; experiment: In vitro cell inhibition assay - H1417 cell proliferation (CellTiter-Glo); type: cell-based
# Summary of the method: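 Cells exposed to 8 compound concentrations (5-fold dilutions) in BEGM with 10% FBS for 7 days at 37° C., 5% CO2. Viable cells measured by CellTiter-Glo luminescence; inhibition versus no-inhibitor and no-cell controls, IC50 fitted.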
# [7] = H69 small cell lung cancer cell proliferation
# [8] = Du145 prostate cancer cell proliferation
# [9] = H1417 small cell lung cancer cell proliferation
# [10] = Homo sapiens, NCI-H69, H69 small cell lung cancer cell proliferation
# [11] = Homo sapiens, DU-145, Du145 prostate cancer cell proliferation
# [12] = Homo sapiens, NCI-H1417, H1417 small cell lung cancer cell proliferation
# Sequence of HDAC8 (Q9BY41 whole entry): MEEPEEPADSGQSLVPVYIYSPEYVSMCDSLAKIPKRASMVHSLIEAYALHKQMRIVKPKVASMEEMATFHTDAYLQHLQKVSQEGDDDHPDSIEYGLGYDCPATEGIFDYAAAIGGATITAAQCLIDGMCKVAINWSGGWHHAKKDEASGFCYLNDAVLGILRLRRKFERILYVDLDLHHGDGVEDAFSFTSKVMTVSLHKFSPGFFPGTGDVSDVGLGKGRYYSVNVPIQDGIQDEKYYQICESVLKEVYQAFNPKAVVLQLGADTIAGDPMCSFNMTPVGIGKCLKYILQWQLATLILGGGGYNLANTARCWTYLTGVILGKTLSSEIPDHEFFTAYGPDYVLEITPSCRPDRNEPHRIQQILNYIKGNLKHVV
SMILES,IC50 [1] [nM],IC50 [2] [nM],"IC50 [3, 7] [nM]",IC50 [4] [nM],"IC50 [5, 8] [nM]","IC50 [6, 9] [nM]","IC50 [3, 10] [nM]","IC50 [5, 11] [nM]","IC50 [6, 12] [nM]"
"COc1ccc(-c2cnc(N3CCC(NCc4ccc(/C=C/C(=O)NO)cc4)CC3)nc2-c2ccc(C#N)c(F)c2)cc1O [Example 71, (E)-3-(4-(((1-(4-(4-cyano-3-fluorophenyl)-5-(3-hydroxy-4-methoxyphenyl)pyrimidin-2-yl)piperidin-4-yl)amino)methyl)-N-hydroxyacrylamide formate]",125,4.61,99,51.8,431,42.3,–,–,–
"COc1ccc(-c2ccc(C(=O)N3CC[C@H](NCc4ccc(/C=C/C(=O)NO)cc4)C3)cc2-c2ccc(C#N)c(F)c2)cc1O [Example 72, (S,E)-3-(4-(((1-(4″-cyano-3″-fluoro-3-hydroxy-4-methoxy-[1,1′:2′,1″-terphenyl]-4′-carbonylpyrrolidin-3-yl)amino)methyl)phenyl)-N-hydroxyacrylamide formate]",160,8.42,970,110,2750,166,–,–,–
"COc1cc(-c2ccc(C(=O)N3CC[C@H](NCc4ccc(/C=C/C(=O)NO)cc4)C3)cc2-c2ccc(C#N)c(F)c2)ccc1O [Example 73, (S,E)-3-(4-(((1-(4″-Cyano-3″-fluoro-4-hydroxy-3-methoxy-[1,1]: 2′,1″-terphenyl]-4′-carbonyl)pyrrolidin-3-yl)amino)methyl)phenyl)-N-hydroxyacrylamide formate]",152,21.2,–,186,–,–,678,2230,125
"COc1ccc(-c2ccc(CN3CC[C@H](NCc4ccc(/C=C/C(=O)NO)cc4)C3)cc2-c2ccc(C#N)c(F)c2)cc1O [Example 74, (S,E)-3-(4-(((1-((4″-cyano-3″-fluoro-3-hydroxy-4-methoxy-[1,1:2′,1″-terphenyl]-4′-yl)methyl)pyrrolidin-3-yl)amino)methyl)phenyl)-N-hydroxyacrylamide formate]",207,2.26,205,23.1,553,40.1,–,–,–
"COc1cc(-c2ccc(CN3CC[C@H](NCc4ccc(/C=C/C(=O)NO)cc4)C3)cc2-c2ccc(C#N)c(F)c2)ccc1O [Example 75, (S,E)-3-(4-(((1-((4″-Cyano-3″-fluoro-4-hydroxy-3-methoxy-[1,1:2,1″-terphenyl]-4′-yl)methyl)pyrrolidin-3-yl)amino)methyl)phenyl)-N-hydroxyacrylamide formate]",212,129,–,76.6,–,–,403,677,473
"COc1ccc(-c2cnc(N3CCC(Nc4cccc(/C=C/C(=O)NO)c4)CC3)c(C#N)c2-c2ccc(C#N)c(F)c2)cc1O [Example 81, (E)-3-(3-((1-(3-cyano-4-(4-cyano-3-fluorophenyl)-5-(3-hydroxy-4-methoxyphenyl)pyridin-2-yl)piperidin-4-yl)amino)phenyl)-N-hydroxyacrylamide formate]",695,140,–,1220,–,–,516,776,73.9

# Second part, the compound after the results:
IC50 [1] [nM],IC50 [2] [nM],"IC50 [3, 7] [nM]",IC50 [4] [nM],"IC50 [5, 8] [nM]","IC50 [6, 9] [nM]","IC50 [3, 10] [nM]","IC50 [5, 11] [nM]","IC50 [6, 12] [nM]",SMILES
374,8.51,–,438,–,–,1140,2820,76.8,"COc1ccc(-c2cnc(N3CCC(Nc4ncc(C(=O)NO)cn4)CC3)c(C#N)c2-c2ccc(C#N)c(F)c2)cc1O [Example 83, 2-((1-(3-Cyano-4-(4-cyano-3-fluorophenyl)-5-(3-hydroxy-4-methoxyphenyl)pyridin-2-yl)piperidin-4-yl)amino)-N-hydroxypyrimidine-5-carboxamide formate]"
542,209,407,110,1550,256,–,–,–,"COc1ccc(-c2cnc(N3CCC(N)(c4ccc(/C=C/C(=O)NO)cc4)CC3)c(C#N)c2-c2ccc(C#N)c(F)c2)cc1O [Example 85, (E)-3-(4-(4-amino-1-(3-cyano-4-(4-cyano-3-fluorophenyl)-5-(3-hydroxy-4-methoxyphenyl)pyridin-2-yl))piperidin-4-yl)phenyl)-N-hydroxyacrylamide formate]"
623,1.41,–,340,–,–,497,2370,63,"COc1cc(-c2cnc(N3CCC(NCCc4cccc(/C=C/C(=O)NO)c4)CC3)c(C#N)c2-c2ccc(C#N)c(F)c2)ccc1O [Example 92, (E)-3-(3-(2-(1-(3-Cyano-4-(4-cyano-3-fluorophenyl)-5-(4-hydroxy-3-methoxyphenyl)pyridin-2-yl)piperidin-4-yl)amino)ethyl) phenyl)-N-hydroxyacrylamide formate]"
256,173,190,110,495,160,–,–,–,"COc1cc(-c2cnc(N3CC4CC3CC4NCc3ccc(/C=C/C(=O)NO)cc3)c(C#N)c2-c2ccc(C#N)c(F)c2)ccc1O (stereo not drawn) [Example 94, (E)-3-(4-(2-(3-Cyano-4-(4-cyano-3-fluorophenyl)-5-(4-hydroxy-3-methoxyphenyl)pyridin-2-yl)-2-azabicyclo[2.2.1]heptan-5-yl)amino)methyl) phenyl)-N-hydroxyacrylamide formate]"
87.2,63.6,–,49,–,–,304,628,335,"COc1cc(-c2cnc(N3CCC(NCc4ccc(/C=C/C(=O)NO)cn4)CC3)c(C#N)c2-c2ccc(C#N)c(F)c2)ccc1O [Example 95, (E)-3-(6-((1-(3-Cyano-4-(4-cyano-3-fluorophenyl)-5-(4-hydroxy-3-methoxyphenyl)pyridin-2-yl)piperidin-4-yl)amino)methyl) pyridin-3-yl)-N-hydroxyacrylamide formate]"
480,160,–,394,–,–,528,2230,707,"COc1cc(-c2cnc(N3CCC(NCc4cccc(/C=C/C(=O)NO)c4)CC3)c(C#N)c2-c2ccc(C#N)c(F)c2)ccc1O [Example 98, (E)-3-(3-((1-(3-Cyano-4-(4-cyano-3-fluorophenyl)-5-(4-hydroxy-3-methoxyphenyl)pyridin-2-yl)piperidin-4-yl)amino)methyl) phenyl)-N-hydroxyacrylamide formate]"
120,9.5,–,50.9,–,–,97.3,122,11.8,"COc1cc(-c2cnc(N3CCC(N(C)Cc4ccc(/C=C/C(=O)NO)cc4)CC3)c(C#N)c2-c2ccc(C#N)c(F)c2)ccc1O [Example 99, (E)-3-(4-(((1-(3-Cyano-4-(4-cyano-3-fluorophenyl)-5-(4-hydroxy-3-methoxyphenyl)pyridin-2-yl)piperidin-4-yl)(methyl)amino)methyl)phenyl)-N-hydroxyacrylamide formate]"
36,49.5,–,35.5,–,–,104,313,118,"COc1cc(-c2cnc(N3CCC(NCc4ccc(/C=C/C(=O)NO)cc4)CC3)c(C#N)c2-c2ccc(C#N)c(F)c2)ccc1O [Example 100, (E)-3-(4-((1-(3-Cyano-4-(4-cyano-3-fluorophenyl)-5-(4-hydroxy-3-methoxyphenyl)pyridin-2-yl)piperidin-4-yl)amino)methyl) phenyl)-N-hydroxyacrylamide hydrochloride]"
159,14.2,–,62.3,–,–,83.6,254,43.3,"N#Cc1ccc(-c2c(-c3ccc4c(c3)OCO4)cnc(N3CCC(NCc4ccc(/C=C/C(=O)NO)cc4)CC3)c2C#N)cc1F [Example 103, (E)-3-(4-(((1-(5-(Benzo[d][1,3]dioxol-5-yl)-3-cyano-4-(4-cyano-3-fluorophenyl)pyridin-2-yl)piperidin-4-yl)amino)methyl)phenyl)-N-hydroxyacrylamide formate]"

# Reference: patent US20250304549A1, “HYDROXYAMIDE DERIVATIVE AND USE THEREOF” (SICHUAN HUIYU PHARMACEUTICAL CO., LTD., priority 2022, published 2025)
